Where two headings read alike, the source gives them in different places.
Columns and labels:
[1] = biological target: T1, ACE N-domain double mutant YR/FE (Homo sapiens, UniProt P12821, R410E/Y398F); test: continuous fluorogenic (Abz)-FRK(Dnp)P-OH ACE inhibition assay, N-domain S2 double mutant YR/FE; format: biochemical
T1 construct: N-domain S2 mutants Y369F, R381E and YR/FE
Procedure: (§1) Parent molecule RXP407 and compound 33RE were dissolved in sterile distilled water to yield stock solutions of 10 mM and subsequently serially diluted in assay buffer (50 mM Hepes, pH 6.8, 200 mM NaCl and 10 μM ZnSO4). Assays were performed on wild-type N-domain, C-domain and N-domain S2 mutants Y369F, R381E and YR/FE as described previously. Briefly, 40 nM enzyme was incubated with an equivolume amount of an appropriate concentration range of phosphinic inhibitor at ambient temperature for 5 min. Enzyme-inhibitor solutions were then divided into aliquotes in triplicate 20 μl volumes followed by the addition of 280 μl of fluorogenic substrate (Abz)-FRK(Dnp)P-OH (in assay buffer) to yield a final substrate concentration of 4 or 8 μM. Residual enzyme activity was monitored continuously at λex=320 nm and λem=420 nm using a fluorescence spectrophotometer (Cary Eclipse, Varian). Initial change of fluorescence over time was converted into arbitrary rate units and inhibitor-binding affinities determined using the Dixon method.
(§2) Assessment of inhibitor potential was carried out using a continuous fluorogenic assay (Abz)-FRK(Dnp)P assay.

[2] = biological target: T2, ACE N-domain mutant R381E (Homo sapiens, UniProt P12821, R410E); test: continuous fluorogenic (Abz)-FRK(Dnp)P-OH ACE inhibition assay, N-domain S2 mutant R381E; format: biochemical
T2 construct: N-domain S2 mutants Y369F, R381E and YR/FE
Procedure: as §1, §2

[3] = biological target: T3, ACE N-domain mutant Y369F (Homo sapiens, UniProt P12821, Y398F); test: continuous fluorogenic (Abz)-FRK(Dnp)P-OH ACE inhibition assay, N-domain S2 mutant Y369F; format: biochemical
T3 construct: N-domain S2 mutants Y369F, R381E and YR/FE
Procedure: as §1, §2

[4] = biological target: T4, ACE N-domain (wild-type) (Homo sapiens, UniProt P12821); test: continuous fluorogenic (Abz)-FRK(Dnp)P-OH ACE inhibition assay, wild-type N-domain; format: biochemical; conditions: for Fold selectivity Ki (C/N): C-domain Ki / wild-type N-domain Ki
T4 construct: Assays were performed on wild-type N-domain, C-domain and N-domain S2 mutants; made in house; host or cells: CHO (Chinese-hamster ovary) cells
Procedure: as §1, §2

[5] = biological target: T4, ACE N-domain (wild-type); design: method as in PMID 10200262; conditions: N-domain over C-domain; cited from earlier work

T1 sequence (P12821 40-624 Y398F/R410E): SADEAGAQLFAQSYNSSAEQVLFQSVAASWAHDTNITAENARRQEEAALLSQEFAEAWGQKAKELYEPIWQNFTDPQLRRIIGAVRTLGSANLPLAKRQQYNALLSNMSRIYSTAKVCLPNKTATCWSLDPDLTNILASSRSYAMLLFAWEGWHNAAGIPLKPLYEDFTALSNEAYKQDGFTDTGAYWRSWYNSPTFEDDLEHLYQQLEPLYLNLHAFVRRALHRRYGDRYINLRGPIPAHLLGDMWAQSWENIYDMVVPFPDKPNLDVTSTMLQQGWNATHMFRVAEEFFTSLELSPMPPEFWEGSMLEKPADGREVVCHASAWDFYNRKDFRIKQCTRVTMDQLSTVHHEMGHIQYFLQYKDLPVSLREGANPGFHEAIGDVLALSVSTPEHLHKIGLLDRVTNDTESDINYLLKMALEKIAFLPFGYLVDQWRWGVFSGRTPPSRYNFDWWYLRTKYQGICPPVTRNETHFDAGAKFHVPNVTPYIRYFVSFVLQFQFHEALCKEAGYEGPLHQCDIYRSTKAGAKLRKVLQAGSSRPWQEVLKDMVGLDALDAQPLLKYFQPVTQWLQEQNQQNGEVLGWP
T2 sequence (P12821 40-624 R410E): as the sequence (P12821 40-624 Y398F/R410E) above, with F359Y counted along it
T3 sequence (P12821 40-624 Y398F): as the sequence (P12821 40-624 Y398F/R410E) above, with E371R counted along it
T4 sequence (P12821 40-624 limits assumed): as the sequence (P12821 40-624 Y398F/R410E) above, with F359Y, E371R counted along it

Row | SMILES | Fold selectivity Ki (C/N) ([1]; C-domain Ki / YR/FE mutant Ki) [fold] | Ki ([1]; N-domain double mutant YR/FE, means±S.E.M.) [nM] | decrease in binding affinity compared with wild-type ([1]; YR/FE vs wild-type N-domain) [fold] | Fold selectivity Ki (C/N) ([2]; C-domain Ki / R381E mutant Ki) [fold] | Ki ([2]; N-domain mutant R381E, means±S.E.M.) [nM] | decrease in binding affinity compared with wild-type ([2]; R381E vs wild-type N-domain) [fold] | Fold selectivity Ki (C/N) ([3]; C-domain Ki / Y369F mutant Ki) [fold] | Ki ([3]; N-domain mutant Y369F, means±S.E.M.) [nM] | decrease in binding affinity compared with wild-type ([3]; Y369F vs wild-type N-domain) [fold] | Ki [4] [nM] | Fold selectivity Ki (C/N) [4] [fold] | N-selectivity [5] | Ki ([4]; wild-type N-domain, Dixon method, means±S.E.M., read-out: Ki) [nM]
1 | C[C@H](CP(=O)(O)[C@H](Cc1ccccc1)NC(=O)[C@@H](N)Cc1nnn[nH]1)C(=O)N[C@H](C)C(N)=O [33RE] | 4 | 2790 ± 156 | 250 | 120 | 87 ± 6.29 | 8 | 26 | 404 ± 17.3 | 36 | 11.2 ± 0.74 | 927 | – | –
2 | CC(=O)NC(CC(=O)O)C(=O)NC(Cc1ccccc1)P(=O)(O)CC(C)C(=O)NC(C)C(N)=O (centres unmarked) [RXP407, reference compound] | – | – | – | – | – | – | – | – | – | – | 2896 | approximately three orders of magnitude | 21 ± 0.27

Reference: paper PMC3875237, “Fragment-based design for the development of N-domain-selective angiotensin-1-converting enzyme inhibitors” (Clinical Science (London, England : 1979), 2013)
